Measurements from ChEMBL document CHEMBL1201862, “PubChem BioAssay data set” (2004).
Calls of active or inactive are those of the source.

How the values were obtained:
[1] = target: T1, Short transient receptor potential channel 4 (Mus musculus, UniProt Q9QUQ5); experiment: mouse TRPC4 channel activators, dose response, cell-based, HEK293 TRPC4/mu-opioid, Fluo-4 calcium (AID 434937); type: functional
T1 sequence (Q9QUQ5 whole entry): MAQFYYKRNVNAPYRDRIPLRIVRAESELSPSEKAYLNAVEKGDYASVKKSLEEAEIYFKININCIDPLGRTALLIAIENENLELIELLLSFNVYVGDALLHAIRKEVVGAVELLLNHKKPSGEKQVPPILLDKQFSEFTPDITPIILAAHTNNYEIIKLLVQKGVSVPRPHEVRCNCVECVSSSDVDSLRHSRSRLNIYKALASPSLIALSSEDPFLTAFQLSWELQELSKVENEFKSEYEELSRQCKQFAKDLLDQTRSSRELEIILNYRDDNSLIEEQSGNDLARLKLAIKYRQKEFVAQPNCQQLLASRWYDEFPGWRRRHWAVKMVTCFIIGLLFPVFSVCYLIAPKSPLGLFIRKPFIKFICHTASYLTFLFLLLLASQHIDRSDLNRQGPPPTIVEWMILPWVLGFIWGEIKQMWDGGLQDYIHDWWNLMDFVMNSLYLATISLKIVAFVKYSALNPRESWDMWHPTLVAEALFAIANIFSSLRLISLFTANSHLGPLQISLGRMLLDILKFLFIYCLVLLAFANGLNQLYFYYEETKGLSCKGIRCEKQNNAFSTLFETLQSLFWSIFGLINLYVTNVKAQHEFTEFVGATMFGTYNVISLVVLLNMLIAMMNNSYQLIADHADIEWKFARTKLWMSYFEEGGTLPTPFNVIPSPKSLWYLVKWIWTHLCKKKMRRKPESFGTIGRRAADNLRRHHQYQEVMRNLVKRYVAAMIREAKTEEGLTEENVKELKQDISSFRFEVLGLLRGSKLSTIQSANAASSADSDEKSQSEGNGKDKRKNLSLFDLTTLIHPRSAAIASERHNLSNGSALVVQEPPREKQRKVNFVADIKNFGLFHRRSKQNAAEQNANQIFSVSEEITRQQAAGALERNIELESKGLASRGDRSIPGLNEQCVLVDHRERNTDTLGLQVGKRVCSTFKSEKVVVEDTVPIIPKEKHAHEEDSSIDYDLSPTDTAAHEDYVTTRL

[2] = target: T2, Polyadenylate-binding protein 1 (Homo sapiens, UniProt P11940); experiment: PABP1 MLLE–PAM2 interaction inhibitors, dose response, miRNA deadenylation inhibitor project, biochemical, fluorescence polarization, Cy5-PAM2 peptide, secondary (AID 602260); type: functional; details: read-out: IC50_Mean
T2 sequence (P11940 whole entry): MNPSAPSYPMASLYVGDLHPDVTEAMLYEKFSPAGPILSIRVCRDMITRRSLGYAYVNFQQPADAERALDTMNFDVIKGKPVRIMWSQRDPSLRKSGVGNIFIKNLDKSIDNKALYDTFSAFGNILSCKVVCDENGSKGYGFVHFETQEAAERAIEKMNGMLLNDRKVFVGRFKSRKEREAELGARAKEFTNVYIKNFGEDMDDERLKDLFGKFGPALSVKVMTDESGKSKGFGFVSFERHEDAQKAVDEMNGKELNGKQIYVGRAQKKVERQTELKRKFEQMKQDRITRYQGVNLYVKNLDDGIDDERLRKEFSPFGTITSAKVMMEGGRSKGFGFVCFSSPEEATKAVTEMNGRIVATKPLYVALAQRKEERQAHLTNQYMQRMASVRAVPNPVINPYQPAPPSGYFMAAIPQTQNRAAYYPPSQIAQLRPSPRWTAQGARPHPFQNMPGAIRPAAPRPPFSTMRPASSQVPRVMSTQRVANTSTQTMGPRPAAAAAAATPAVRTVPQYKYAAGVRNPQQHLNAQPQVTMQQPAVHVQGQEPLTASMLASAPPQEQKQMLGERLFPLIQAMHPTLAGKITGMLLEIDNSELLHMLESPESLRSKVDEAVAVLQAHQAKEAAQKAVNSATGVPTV

[3] = target: T2, Polyadenylate-binding protein 1; experiment: PABP1 MLLE–PAM2 binding inhibitor potency, dose response, biochemical, fluorescence polarization, FITC-PAM2 peptide (AID 602259); type: functional; details: read-out: IC50_Mean
[4] = target: T3, Corticotropin-releasing factor receptor 2/Corticotropin-releasing factor-binding protein (Homo sapiens, UniProt P24387+Q13324); experiment: activators of CRF receptor 2 with binding protein – uHTS hits, confirmation (AID 602473); type: functional; details: read-out: EC50_Mean
T3 sequence (Q13324 whole entry): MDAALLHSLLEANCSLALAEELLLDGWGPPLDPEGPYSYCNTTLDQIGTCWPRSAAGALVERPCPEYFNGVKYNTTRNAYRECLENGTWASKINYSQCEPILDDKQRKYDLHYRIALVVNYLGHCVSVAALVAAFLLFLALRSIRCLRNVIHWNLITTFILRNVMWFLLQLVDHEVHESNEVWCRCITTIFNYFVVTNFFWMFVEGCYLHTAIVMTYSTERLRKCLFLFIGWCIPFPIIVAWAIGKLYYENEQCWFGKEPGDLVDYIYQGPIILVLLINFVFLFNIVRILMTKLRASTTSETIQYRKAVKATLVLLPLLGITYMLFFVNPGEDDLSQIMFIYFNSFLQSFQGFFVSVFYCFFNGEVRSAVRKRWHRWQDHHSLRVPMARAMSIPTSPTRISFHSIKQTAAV
T3 sequence (P24387 whole entry): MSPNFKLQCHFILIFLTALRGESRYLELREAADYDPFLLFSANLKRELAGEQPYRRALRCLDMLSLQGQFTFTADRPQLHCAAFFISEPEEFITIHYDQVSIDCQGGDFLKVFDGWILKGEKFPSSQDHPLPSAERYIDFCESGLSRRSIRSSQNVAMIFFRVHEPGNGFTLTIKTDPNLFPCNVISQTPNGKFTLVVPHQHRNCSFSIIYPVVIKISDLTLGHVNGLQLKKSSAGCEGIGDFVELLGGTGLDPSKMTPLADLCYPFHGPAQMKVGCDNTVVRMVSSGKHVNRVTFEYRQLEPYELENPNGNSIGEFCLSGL

[5] = target: T4, Carboxy-terminal domain RNA polymerase II polypeptide A small phosphatase 1 (Homo sapiens, UniProt Q9GZU7); experiment: inhibitors of CTDSP1, concentration-response testing, biochemical assay, absorbance-based, actives from ultra-high-throughput screening (AID 540297); type: functional
T4 sequence (Q9GZU7 whole entry): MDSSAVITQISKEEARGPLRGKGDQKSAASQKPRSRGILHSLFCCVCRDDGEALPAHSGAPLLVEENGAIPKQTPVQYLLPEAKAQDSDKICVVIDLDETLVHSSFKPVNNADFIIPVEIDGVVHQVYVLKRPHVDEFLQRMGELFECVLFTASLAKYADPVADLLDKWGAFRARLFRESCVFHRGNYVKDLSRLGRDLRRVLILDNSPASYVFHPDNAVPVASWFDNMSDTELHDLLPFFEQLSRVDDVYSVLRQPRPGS

[6] = target: T5, Heat shock factor protein 1 (Mus musculus, UniProt P38532); experiment: HSF1 potentiators in luciferase reporter cells, confirmation, cell-based, NIH3T3, luminescence, dose retest (AID 435004); type: functional;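 further: stress induced by proteasome inhibitor MG132 added 30 min after compound; luciferase reporter driven by HSF1 response element in NIH3T3 cells; actives raise luminescence as potentiators of the MG132 stress response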
T5 sequence (P38532 whole entry): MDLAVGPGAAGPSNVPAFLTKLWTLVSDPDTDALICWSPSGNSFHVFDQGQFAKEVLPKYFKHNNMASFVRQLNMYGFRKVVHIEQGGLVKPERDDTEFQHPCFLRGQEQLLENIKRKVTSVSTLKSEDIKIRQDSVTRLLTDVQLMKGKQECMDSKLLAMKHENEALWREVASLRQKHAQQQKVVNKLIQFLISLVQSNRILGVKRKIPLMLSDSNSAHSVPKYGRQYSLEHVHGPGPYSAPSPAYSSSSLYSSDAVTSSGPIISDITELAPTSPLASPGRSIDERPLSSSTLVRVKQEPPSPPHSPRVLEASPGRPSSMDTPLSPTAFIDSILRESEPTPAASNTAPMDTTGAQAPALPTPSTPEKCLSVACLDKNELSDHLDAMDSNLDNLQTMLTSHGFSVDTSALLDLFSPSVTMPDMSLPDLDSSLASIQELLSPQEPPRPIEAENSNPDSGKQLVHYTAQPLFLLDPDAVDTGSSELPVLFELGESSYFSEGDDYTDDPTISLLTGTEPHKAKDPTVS

Cytochrome P450 3A4 = Cytochrome P450 3A4 (Homo sapiens, UniProt P08684);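 further: CYP3A4 tested as one member of a cytochrome P450 panel screen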
Chain of Cytochrome P450 3A4 (P08684 whole entry): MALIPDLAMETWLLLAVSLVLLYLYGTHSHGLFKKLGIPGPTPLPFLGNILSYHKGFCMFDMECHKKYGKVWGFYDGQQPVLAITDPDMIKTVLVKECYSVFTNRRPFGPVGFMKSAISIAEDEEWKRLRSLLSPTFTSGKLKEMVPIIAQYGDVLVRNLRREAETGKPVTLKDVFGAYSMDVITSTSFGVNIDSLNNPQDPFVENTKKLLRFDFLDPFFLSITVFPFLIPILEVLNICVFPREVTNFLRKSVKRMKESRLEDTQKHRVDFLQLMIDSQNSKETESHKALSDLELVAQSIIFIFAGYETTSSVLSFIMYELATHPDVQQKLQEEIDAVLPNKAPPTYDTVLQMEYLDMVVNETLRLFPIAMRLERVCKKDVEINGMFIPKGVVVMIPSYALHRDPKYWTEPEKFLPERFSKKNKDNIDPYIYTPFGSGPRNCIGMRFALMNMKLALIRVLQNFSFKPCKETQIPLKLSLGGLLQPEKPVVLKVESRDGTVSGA

Cytochrome P450 2C9 = Cytochrome P450 2C9 (Homo sapiens, UniProt P11712)
Chain of Cytochrome P450 2C9 (P11712 whole entry): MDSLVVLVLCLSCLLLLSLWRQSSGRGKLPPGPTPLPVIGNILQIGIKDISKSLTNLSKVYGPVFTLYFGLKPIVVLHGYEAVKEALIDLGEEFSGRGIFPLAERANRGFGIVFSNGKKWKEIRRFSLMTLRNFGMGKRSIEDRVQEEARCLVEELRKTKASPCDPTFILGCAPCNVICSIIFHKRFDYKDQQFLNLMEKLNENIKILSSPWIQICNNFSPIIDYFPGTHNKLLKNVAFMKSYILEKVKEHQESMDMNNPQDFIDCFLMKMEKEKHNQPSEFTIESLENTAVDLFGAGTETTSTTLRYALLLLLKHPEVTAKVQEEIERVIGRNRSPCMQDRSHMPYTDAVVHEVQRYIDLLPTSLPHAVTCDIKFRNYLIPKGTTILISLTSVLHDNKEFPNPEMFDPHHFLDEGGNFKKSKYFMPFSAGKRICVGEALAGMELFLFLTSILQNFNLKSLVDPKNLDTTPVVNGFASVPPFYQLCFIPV

Cytochrome P450 2C19 = Cytochrome P450 2C19 (Homo sapiens, UniProt P33261); experiment: Cytochrome panel assay with activity outcomes. Panel member name: p450-cyp2c19 Compounds with AC50 equal or less than 10 uM are considered active; type: functional; details: read-out: AC50
Chain of Cytochrome P450 2C19 (P33261 whole entry): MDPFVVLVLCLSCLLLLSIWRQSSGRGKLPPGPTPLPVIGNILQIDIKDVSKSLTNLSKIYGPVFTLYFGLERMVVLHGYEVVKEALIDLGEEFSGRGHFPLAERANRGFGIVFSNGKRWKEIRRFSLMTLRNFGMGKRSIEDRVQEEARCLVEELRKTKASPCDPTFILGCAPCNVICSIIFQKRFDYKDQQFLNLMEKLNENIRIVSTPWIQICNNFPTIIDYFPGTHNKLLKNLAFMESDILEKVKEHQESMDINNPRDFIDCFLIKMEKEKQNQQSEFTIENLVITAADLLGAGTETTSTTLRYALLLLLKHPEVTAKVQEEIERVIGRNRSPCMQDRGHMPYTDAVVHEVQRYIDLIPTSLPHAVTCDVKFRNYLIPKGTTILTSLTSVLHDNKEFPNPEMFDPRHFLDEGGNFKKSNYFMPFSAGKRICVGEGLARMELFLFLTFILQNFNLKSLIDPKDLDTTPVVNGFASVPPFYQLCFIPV

[7] = Luminescence Cell-Based Dose Response HTS to Identify Activators of Luciferase Translation or Activity in H4 […] Cells. [Related pubchem assays: 1829 (Project Summary), 1814 (Primary HTS)]; type: functional
[8] = system: Streptococcus sp. 'group A'; experiment: growth inhibition of control SK(-) GAS strain, dose response, counter-screen for streptokinase expression inhibitor project, luminescence, kanamycin, BacTiterGlo, confirmation (AID 1900); type: functional, organism-based
H4 = experiment: Luminescence Cell-Based Dose Response HTS to Identify Activators of 5'UTR Stem-Loop Driven Prion Protein mRNA Translation in H4 Neuroglioblastoma Cells. [Related pubchem assays: 1829 (Project Summary), 1814 (Primary HTS)]; type: functional; details: Homo sapiens
Streptokinase A = target: T6, Streptokinase A (Streptococcus pyogenes serotype M1, UniProt P10520); experiment: S. pyogenes streptokinase expression inhibitors, potency, dose response, plasminogen activation absorbance, OD405 (AID 1914); type: functional, Streptococcus pyogenes M1 GAS;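 further: secreted streptokinase activity via plasminogen activation per viability signal from cell pellet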
T6 sequence (P10520 whole entry): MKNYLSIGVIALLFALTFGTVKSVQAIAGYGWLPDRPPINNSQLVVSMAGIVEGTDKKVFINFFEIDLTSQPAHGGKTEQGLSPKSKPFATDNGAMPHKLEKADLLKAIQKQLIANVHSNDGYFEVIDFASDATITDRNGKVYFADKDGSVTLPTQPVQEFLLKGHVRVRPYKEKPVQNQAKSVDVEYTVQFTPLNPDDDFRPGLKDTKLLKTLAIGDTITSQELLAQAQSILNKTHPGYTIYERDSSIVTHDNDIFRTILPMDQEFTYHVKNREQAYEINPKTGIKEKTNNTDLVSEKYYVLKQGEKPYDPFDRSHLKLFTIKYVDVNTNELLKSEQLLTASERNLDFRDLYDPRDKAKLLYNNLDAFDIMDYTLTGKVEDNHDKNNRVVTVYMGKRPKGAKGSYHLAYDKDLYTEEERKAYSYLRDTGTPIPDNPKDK

Streptococcus = experiment: Group A Streptococcus viability loss, dose response, counter-screen for streptokinase expression inhibitor project, luminescence, BacTiterGlo (AID 1915); type: functional, organism-based;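 further: potency for reduction of bacterial viability or growth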
[9] = inhibitors of intracellular T. cruzi replication, confirmation, NIH3T3 host cells, beta-gal luminescence (AID 2044); type: functional, cell-based;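 further: intracellular parasites grown in NIH/3T3 mouse fibroblasts as host cells; luminescent beta-galactosidase reporter signal from transgenic T. cruzi replicating inside host cells; inhibitors lower the luminescence signal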
[10] = cytotoxicity toward NIH3T3 fibroblasts, dose response, counter-screen, cell-based, ATP luminescence, mouse fibroblasts (AID 2010); type: functional;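 further: cells exposed to compound for about 90 hours before reading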
Cytochrome P450 1A2 = target: T7, Cytochrome P450 1A2 (Homo sapiens, UniProt P05177);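 further: PubChem cytochrome P450 panel assay, CYP1A2 panel member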
T7 sequence (P05177 whole entry): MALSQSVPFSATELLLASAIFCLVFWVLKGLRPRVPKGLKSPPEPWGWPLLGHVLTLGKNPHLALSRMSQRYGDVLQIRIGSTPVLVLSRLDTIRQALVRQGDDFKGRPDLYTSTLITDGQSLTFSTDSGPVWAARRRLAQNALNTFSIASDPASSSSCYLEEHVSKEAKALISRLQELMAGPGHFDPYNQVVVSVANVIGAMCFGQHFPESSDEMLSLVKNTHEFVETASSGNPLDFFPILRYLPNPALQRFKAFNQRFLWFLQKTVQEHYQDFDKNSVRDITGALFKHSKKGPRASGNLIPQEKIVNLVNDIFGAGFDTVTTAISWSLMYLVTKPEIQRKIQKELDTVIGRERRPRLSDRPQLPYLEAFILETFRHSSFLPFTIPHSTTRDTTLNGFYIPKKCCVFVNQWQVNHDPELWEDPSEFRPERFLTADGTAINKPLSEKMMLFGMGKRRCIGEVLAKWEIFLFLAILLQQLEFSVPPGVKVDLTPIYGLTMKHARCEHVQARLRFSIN

Cytochrome P450 2D6 = Cytochrome P450 2D6 (Homo sapiens, UniProt P10635);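 further: CYP2D6 member of a cytochrome P450 panel assay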
Chain of Cytochrome P450 2D6 (P10635 whole entry): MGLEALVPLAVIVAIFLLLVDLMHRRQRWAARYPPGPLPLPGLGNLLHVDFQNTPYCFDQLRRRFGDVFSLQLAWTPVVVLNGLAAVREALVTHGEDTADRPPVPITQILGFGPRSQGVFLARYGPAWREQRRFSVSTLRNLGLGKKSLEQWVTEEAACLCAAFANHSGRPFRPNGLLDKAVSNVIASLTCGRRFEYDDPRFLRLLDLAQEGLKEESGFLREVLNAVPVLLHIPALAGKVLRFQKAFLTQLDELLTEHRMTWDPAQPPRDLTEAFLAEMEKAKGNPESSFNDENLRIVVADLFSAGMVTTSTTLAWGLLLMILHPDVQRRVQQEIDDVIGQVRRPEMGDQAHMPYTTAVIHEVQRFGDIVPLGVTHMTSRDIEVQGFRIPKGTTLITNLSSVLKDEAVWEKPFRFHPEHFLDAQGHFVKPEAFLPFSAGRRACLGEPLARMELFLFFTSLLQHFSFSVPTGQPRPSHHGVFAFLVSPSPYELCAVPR

CC12CCCCN1CCCc1c2[nH]c2ccccc12 (stereo not drawn)
EC50 [1]: 4.22 µM (active) | IC50 [2]: > 66 µM (inactive) | IC50 [3]: > 66 µM (inactive) | EC50 [4]: 4.38 µM (active)

CCOC(=O)C1(CCCc2ccccc2)CCN(Cc2cn(CC)nc2C)CC1
EC50 [1]: 0.119 µM (active)

COc1ccc(/C=C/CN2CCCC(C(=O)c3ccc(OC)c(F)c3)C2)cc1 (stereo not drawn)
EC50 [1]: 10.6 µM (active)

Cc1c(Cl)cnc(NC(=O)COC(=O)c2ccc(S(=O)(=O)NCc3ccco3)cc2)c1Cl
IC50 [5]: 8.67 µM (active)

Cc1ccc2[nH]c(/C(C#N)=C\c3ccc(Oc4ccc(C(F)(F)F)cc4[N+](=O)[O-])cc3)nc2c1
IC50 [5]: 2.42 µM (active)

O=C(Oc1ccc(C(=S)N2CCOCC2)cc1Br)c1cc(Cl)ccc1Cl
EC50 [6]: 68.8 µM (active) | AC50 (Cytochrome P450 3A4): 12.6 µM (inconclusive) | AC50 (Cytochrome P450 2C9): inconclusive

COc1ccc(NC(=O)c2cc(-c3ccccc3Cl)no2)cc1
AC50 (Cytochrome P450 2C19): 2.82 µM (inconclusive) | AC50 (Cytochrome P450 3A4): 20 µM (inconclusive) | AC50 (Cytochrome P450 2C9): inconclusive

CCOc1c(OC(C)=O)ccc(/C=C/c2ccc3cccc(OC(C)=O)c3n2)c1[N+](=O)[O-]
EC50 [7]: 8.52 µM (active) | EC50 [8]: 1.49 µM (active) | EC50 (H4): 8.07 µM (active) | EC50 (Streptokinase A): > 150 µM (not active) | EC50 (Streptococcus): 8.24 µM (active) | AC50 (Cytochrome P450 2C9): inconclusive

CCN1CCN(c2c(Cl)cccc2NC(=O)c2ccc([N+](=O)[O-])cc2)CC1
EC50 [1]: 0.421 µM (active)

Cc1cc(Br)cc(C)c1OCCCCN(C)C.O=C(O)C(=O)O
EC50 [9]: 0.196 µM (active) | EC50 [10]: > 30 µM (not active) | AC50 (Cytochrome P450 2C9): inconclusive

O=C(Nc1ccc(Cl)cc1)N1CCC(c2nc(-c3cccs3)no2)CC1
EC50 [1]: 3.35 µM (active)

O=C(O)/C(=C/c1ccco1)NC(=O)c1ccccc1
IC50 [5]: 6.04 µM (active)

O=C(COc1ccc2ccccc2c1Br)NNC(=O)Nc1ccccc1
AC50 (Cytochrome P450 2C9): inconclusive

Cc1[nH]n(-c2ccccc2)c(=O)c1CCOC(=O)c1ccc(C(F)(F)F)cc1
AC50 (Cytochrome P450 1A2): 15.8 µM (inconclusive) | AC50 (Cytochrome P450 2C9): inconclusive

Cc1ccc(/C=N/NC(=O)C2CCN(Cc3ccc(F)cc3Cl)CC2)o1
AC50 (Cytochrome P450 2C19): 31.6 µM (inconclusive) | AC50 (Cytochrome P450 2D6): 35.5 µM (inconclusive) | AC50 (Cytochrome P450 3A4): 5.01 µM (inconclusive) | AC50 (Cytochrome P450 2C9): inconclusive
